Laboratory results as given in patent US20230218544A1, “TREATMENT METHODS AND FORMULATIONS” (Curtin University, priority 2020, published 2023).
Entries after “also recorded” stand apart in the source; their conditions may differ.

Tests used:
[1] = test system: HEI-OC1 cells; assay: Cell viability with cisplatin and probucol (oto-protection); format: cell-based, mouse
Protocol: House Ear Institute-Organ of Corti 1 (HEI-OC1) cells provided by Y J. Seo (Yonsei University, wonju, Korea) and F. Kalinec, (House Ear Institute, (Los Angeles, Calif., USA) were cultured in high-glucose Dulbecco's modified Eagle's medium (DMEM; Lonza, USA) supplemented with 10% Fetal bovine serum (FBS; Gibco BRL, USA) and 50 U/ml gamma-interferon (PEPRO TECH, INC. USA) without any antibiotics in a permissive condition (33° C., 10% CO2). For the non-permissive condition, cultured cells were cultured in the permissive condition for a certain period (Kalinec G, Thein P, Park C, Kalinec F. HEI-OC1 cells as a model for investigating drug cytotoxicity. Hearing Res. 2016; 335:105-117. doi:10.1016/j.heares.2016.02.019). Growth curves were performed to identify the growth patterns of cells in each condition. Cells cultured at 33° C., in a 10% CO2 atmosphere condition were recorded on day 0 after cell counting before seeding. Cells were recovered stripped daily from the cell dish and enumerated. This was done then, cell counted, confirmed for up to 14 days. Following the shift, cells were enumerated daily for 14 days. As explained above, HEI-OC1 cells were cultured in permissive conditions (33° C., 10% CO2) until day 5 and then transferred to the non-permissive condition (39° C., 5% CO2).
Cisplatin was from Sigma Chemical Co. (St. Louis, Mo., USA). […]

[2] = test system: guinea pig model of ototoxicity; assay: Experimental Example 3: round window CAP thresholds after kanamycin and furosemide ototoxicity; format: in vivo, guinea pigs (Cavia porcellus)
Source text: The animal was then removed from isoflurane, and allowed to recover slowly under close observation. […] Animals were then deeply anaesthetized, and euthanized via cardiac fixation for temporal bones harvesting.

[3] = test system: spiral ganglion neurons (SGNs); assay: Light sheet microscopy quantification of spiral ganglion neuron (SGN) density in cochlea; format: in vivo, guinea pig
Protocol: Harvested temporal bones were immersed in 4% para-formaldehyde overnight at 4° C., before being decalcified for 14-18 days in 10% EDTA. They were then rinsed with Sorenson's buffer, dehydrated in a series of 50, 75, 90 and 100% ethanol (8-12 h each step), and immersed in Spalteholz solution for 24 h, to render the sample optically transparent. Samples were then imaged using a custom light-sheet fluorescence microscope (LSFM), based on the setup described by Santi et al. (2009) (Santi P A. Light Sheet Fluorescence Microscopy. J Histochem Cytochem. 2010; 59(2):129-138. doi:10.1369/0022155410394857), where ‘virtual slices’ of the inner ear were imaged at […] steps in the axial plane, detailed in Brown et al. (2016) (Brown D J, Pastras C J, Curthoys I S, Southwell C S, Roon L V. Endolymph movement visualized with light sheet fluorescence microscopy in an acute hydrops model. Hearing Res. 2016; 339 (PloS one 7 2012):112-124. doi:10.1016/j.heares.2016.06.007), providing a ‘z-stack’ of between 300 and 1000 virtual slice images. LSFM images were analyzed by a blinded investigator, for later comparison to the functional data and treatment. LSFM z-stacks were analyzed using ImageJ software, with 3D volumes segmented for volume analysis using the Segmentation3D plugin. TIFF files collected from the light sheet microscope were reconstructed into representative 3D images. […]

[4] = test system: guinea pig model of ototoxicity; assay: Experimental Example 4: CAP thresholds in ototoxicity animal model with kanamycin and furosemide; format: in vivo, guinea pigs (Cavia porcellus); conditions: for difference of CAP between ototoxicity and ototoxicity with probucol sides: day 14 post-treatment
Protocol: Experiments were performed on 9 adult guinea pigs (Cavia porcellus) of either sex with body weights between 250 and 350 g. All experimental procedures were approved by The University of Curtin Animal Ethics Committee.
For all experiments, each animal first underwent a recovery surgery at day ‘zero’ to inject.
For the recovery surgery, each animal was given a 0.05 ml subcutaneous injection of Temgesic (Buprenorpherine; Reckitt Benckiser, Auckland NZ) and 0.1 ml of Atrosine (0.6 mg/ml atropine sulphate; Apex Laboratories, NSW, Australia) before being anesthetized using isoflurane (2-5%). The temperature was maintained using an electric heating pad, and lignocaine was used as a local anesthetic. While using aseptic techniques, animals were mounted on a custom ear-bar setup, and the left bulla surgically opened via a dorsal approach providing a view of the left round window, using aseptic techniques. Before the drug administrations, the AgCl ball-electrode (reference in the neck) was placed on the round window for recording compound action potential (CAP) responses (Brown D J, Chihara Y, Curthoys I S, Wang Y, Bos M. Changes in cochlear function during acute endolymphatic hydrops development in guinea pigs. Hearing Res. 2013; 296 (J. Neurophysiol. 101 2009):96-106. doi:10.1016/j.heares.2012.12.004; Brown D J, Pastras C J, Curthoys I S, Southwell C S, Roon L V. Endolymph movement visualized with light sheet fluorescence microscopy in an acute hydrops model. Hearing Res. 2016; 339 (PloS one 7 2012):112-124. doi:10.1016/j.heares.2016.06.007; and Brown D J, Sokolic L, Fung A, Pastras C J. Response of the Inner Ear to Lipopolysaccharide Introduced Directly into Scala Media. Hearing Res. 2018; 370 (Otol Neurotol 32 2011):105-112. doi:10.1016/j.heares.2018.10.007).
The bulla opening was resealed with dental cement before the overlying skin was sutured. The animal was then removed from isoflurane, and allowed to recover slowly under close observation. During recovery, the animal was given a subsequent 0.05 ml i.p. dose of Temgesic, along with an oral delivery of 1 ml Ibuprofen (40 mg/ml; Reckitt Benckiser Pty Ltd, Australia). Animals were then allowed to recover for 14 days (±3) days. For following CAP threshold measurements after 14 days, the bulla was re-opened with same procedures. Thereafter, animals were re-anaesthetized and mounted on the ear-bars, for a repeated measure of CAP thresholds described previously. Animals were then deeply anaesthetized, and euthanized via cardiac fixation for temporal bones harvesting.
The standard deviation of CAP thresholds was measured at day 0.

[5] = test system: HEI-OC1 cells; assay: Cisplatin cytotoxicity in inner ear sensory cells; format: cell-based, mouse; conditions: concentration used in subsequent experiments to ensure IC 50; 24 hours; read-out: IC 50 on cell viability
Protocol: House Ear Institute-Organ of Corti 1 (HEI-OC1) cells provided by Y J. Seo (Yonsei University, wonju, Korea) and F. Kalinec, (House Ear Institute, (Los Angeles, Calif., USA) were cultured in high-glucose Dulbecco's modified Eagle's medium (DMEM; Lonza, USA) supplemented with 10% Fetal bovine serum (FBS; Gibco BRL, USA) and 50 U/ml gamma-interferon (PEPRO TECH, INC. USA) without any antibiotics in a permissive condition (33° C., 10% CO2). For the non-permissive condition, cultured cells were cultured in the permissive condition for a certain period (Kalinec G, Thein P, Park C, Kalinec F. HEI-OC1 cells as a model for investigating drug cytotoxicity. […] Growth curves were performed to identify the growth patterns of cells in each condition. Cells cultured at 33° C., in a 10% CO2 atmosphere condition were recorded on day 0 after cell counting before seeding. Cells were recovered stripped daily from the cell dish and enumerated. This was done then, cell counted, confirmed for up to 14 days. Following the shift, cells were enumerated daily for 14 days. As explained above, HEI-OC1 cells were cultured in permissive conditions (33° C., 10% CO2) until day 5 and then transferred to the non-permissive condition (39° C., 5% CO2).
High-glucose DMEM supplemented with 0.5% FBS was used. […]

SMILES	cell survival compared with control ([1]; probucol 20 μM and 50 μM with cisplatin, 24 h)	cellular mitogenesis compared with control ([1]; probucol 100 μM, attributed to high concentration of vehicle DMSO)	mean difference between left and right CAP thresholds ([2]; 2 kHz, insignificant) [dB]	hearing loss (CAP thresholds compared to baseline), probucol-treated cochleae ([2]; about 100 μL probucol-gel on round window, after kanamycin and furosemide, significant at all frequencies except 6 and 10 kHz)	average CAP threshold compared to non-probucol treated cochlea ([2]; at 6 kHz and 10 kHz)	density of SGNs in the basal turn versus ototoxicity alone group ([3]; basal turn of cochlea, significant)	effect on hair cell damages by ototoxicity drugs ([3]; guinea pig, in vivo)	difference of CAP between ototoxicity and ototoxicity with probucol sides ([4]; 6 kHz, probucol injected into bulla around RWM) [dB]	difference of CAP between ototoxicity and ototoxicity with probucol sides ([4]; 10 kHz) [dB]	difference of CAP between ototoxicity and ototoxicity with probucol sides ([4]; 14 kHz) [dB]	hearing protection in the ototoxicity guinea pig model ([4]; guinea pig, in vivo)	thresholds of hearing (CAP) versus control side ([4]; significant only at 6 and 10 kHz)	IC50 [5] [µM]
CC(C)(Sc1cc(C(C)(C)C)c(O)c(C(C)(C)C)c1)Sc1cc(C(C)(C)C)c(O)c(C(C)(C)C)c1 [probucol, 2,6-ditert-butyl-4-[2-(3,5-ditert-butyl-4-hydroxyphenyl)sulfanylpropan-2-ylsulfanyl]phenol]	promoted the cell survival	significant decrease in cellular mitogenesis	3	11-40 dB	significantly lower	significantly larger density; also recorded: kept not to be injured	protective effect	23.4±9.49	21.89 ± 7.72	16.56±4.15	hearing protection effect	better thresholds of hearing	
N.N.[Cl][Pt][Cl] [cisplatin]													~20
